Source: patent US20220259235A1, “EGFR Inhibitor, Composition, and Preparation Method Therefor” (BETTA PHARMACEUTICALS CO., LTD, priority 2019, published 2022)

What was measured:
[1] = Liver microsomal clearance test, monkey; type: in vitro ADME; conditions: Monkey liver microsomes, 0.5 mg/mL, NADPH
Procedure: Test 3 Liver Microsomal Clearance Test
1. Prepare 0.5 mg/mL liver microsome diluent containing K-butter and MgCl2:
2.1 Take 356 μL of the liver microsome diluent prepared above and add it to the preset wells of the incubation plate, the number of multiple wells n=1, mark it as the incubation plate.
2.2 Take 4 μL of the positive control compound Verapamil (50 μM) and the working solution of the test compound (200 μM) into the above incubation plate containing 356 μL of liver microsome diluent, and mix well (The dilution solvent from the stock solution to the working solution is a mixed solvent of acetonitrile: methanol: water=1:1:2, and the final concentration of DMSO is ≤0.5%),
2.3 Place the incubation plate in a 37° C. thermostatic oscillator (at shaking speed of 100 rpm) for pre-incubation with 10 min.
2.4 Add 40 μL of 10 mM NADPH (add 40 μL of K-buffer to the wells without NADPH) to each reaction well to start the reaction and start timing.
3. Sample collection and treatment:
3.1 After adding NADPH to start the reaction, immediately take out 50 μL of the sample and add it to the precipitation plate pre-added with 400 μL of stop solution, and shake on an oscillator at 600 rpm for 5 min at room temperature as a 0 min sample.
3.2 At the predetermined time points of 5 min, 15 min and 45 min, take out 50 μL of sample from the incubation plate and add it to the precipitation plate. The subsequent steps were the same as the treatment of 0 min sample. 3.3 After balancing, centrifuge above precipitation plate at 3200 rpm for 10 min at 4° C.
3.4 Take 50 μL of the supernatant after centrifugation and add it to pre-added 20% acetonitrile water at appropriate proportion, shake on an oscillator at 600 rpm for 2 min at room temperature, mix well, and put it into the LC-MS/MS sampler for sample injection.
Analysis of Experimental Data
1. […]

[2] = molecular target: Ba/F3-L858R/T790M/C797S (Homo sapiens, UniProt P00533, T790M/C797S/L858R, cells depend on it); test: Ba/F3-L858R/T790M/C797S cell proliferation assay (CellTiter Glo, 72 h); type: cell-based; conditions: CTG, numeric values, read-out: BaF3 L858R/T790M/C797S IC50
How it was run: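 Cells seeded at 2000/well and exposed 72 h to compound at 1000 to 0.2 nM (0.1% DMSO). Viability read by CellTiter-Glo luminescence; IC50 from four-parameter nonlinear regression of signal vs. log concentration.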

[3] = molecular target: T1, hERG protein (Homo sapiens, UniProt Q12809); test: hERG IC50 test (tracer/membranes fluorescence polarization); type: binding; conditions: hERG membranes and tracer, read-out: IC50 results of hERG protein to compound
T1 construct: purchased
Procedure: 1. Thaw hERG kits (Tracer, E-4031 and Membranes) at room temperature;
2. Add 10 μL of positive compound E-4031 and 10 μL of test compound (10 mM) to 384 well plate (Corning, Art. No. 3658);
3. E-4031 is sequentially 5-fold diluted by pure water (10 concentration points in total), and the test compound is sequentially 5-fold diluted by DMSO (10 concentration points in total).
4. Take 1 μL of all gradient concentrations and add them in parallel to the wells containing 24 μL Assay buffer, and dilute 25 times (take 3 μL of the maximum concentration of E-4031 and add it to 72 μL Assay buffer).
5. Add 10 μL Membranes to another black 384-well plate (Coming, Art.4511).
6. Take 5 μL of 25-fold diluted working solution of positive and test compounds, and add it to above-mentioned plate with 10 μL Membranes, 2 copies at each concentration.
7. Negative control: Add 5 μL Assay buffer to the well with 10 μL Membranes, 8 copies in parallel;
8. Positive control: Add 5 μL E-4031 (120 μM) to the well with 10 μL Membranes, 8 copies in parallel;
9. […]
10. Before measuring the fluorescence polarization, cover the analysis plate to protect the reagents from light and evaporation, and incubate at room temperature (20-25° C.) for 2 hours.
11. Read fluorescence polarization in PerkinElmer EnVision® Multilabel after incubation; […]

Ba/F3-L858R/T790M/C797S, sequence (P00533 whole entry T790M/C797S/L858R): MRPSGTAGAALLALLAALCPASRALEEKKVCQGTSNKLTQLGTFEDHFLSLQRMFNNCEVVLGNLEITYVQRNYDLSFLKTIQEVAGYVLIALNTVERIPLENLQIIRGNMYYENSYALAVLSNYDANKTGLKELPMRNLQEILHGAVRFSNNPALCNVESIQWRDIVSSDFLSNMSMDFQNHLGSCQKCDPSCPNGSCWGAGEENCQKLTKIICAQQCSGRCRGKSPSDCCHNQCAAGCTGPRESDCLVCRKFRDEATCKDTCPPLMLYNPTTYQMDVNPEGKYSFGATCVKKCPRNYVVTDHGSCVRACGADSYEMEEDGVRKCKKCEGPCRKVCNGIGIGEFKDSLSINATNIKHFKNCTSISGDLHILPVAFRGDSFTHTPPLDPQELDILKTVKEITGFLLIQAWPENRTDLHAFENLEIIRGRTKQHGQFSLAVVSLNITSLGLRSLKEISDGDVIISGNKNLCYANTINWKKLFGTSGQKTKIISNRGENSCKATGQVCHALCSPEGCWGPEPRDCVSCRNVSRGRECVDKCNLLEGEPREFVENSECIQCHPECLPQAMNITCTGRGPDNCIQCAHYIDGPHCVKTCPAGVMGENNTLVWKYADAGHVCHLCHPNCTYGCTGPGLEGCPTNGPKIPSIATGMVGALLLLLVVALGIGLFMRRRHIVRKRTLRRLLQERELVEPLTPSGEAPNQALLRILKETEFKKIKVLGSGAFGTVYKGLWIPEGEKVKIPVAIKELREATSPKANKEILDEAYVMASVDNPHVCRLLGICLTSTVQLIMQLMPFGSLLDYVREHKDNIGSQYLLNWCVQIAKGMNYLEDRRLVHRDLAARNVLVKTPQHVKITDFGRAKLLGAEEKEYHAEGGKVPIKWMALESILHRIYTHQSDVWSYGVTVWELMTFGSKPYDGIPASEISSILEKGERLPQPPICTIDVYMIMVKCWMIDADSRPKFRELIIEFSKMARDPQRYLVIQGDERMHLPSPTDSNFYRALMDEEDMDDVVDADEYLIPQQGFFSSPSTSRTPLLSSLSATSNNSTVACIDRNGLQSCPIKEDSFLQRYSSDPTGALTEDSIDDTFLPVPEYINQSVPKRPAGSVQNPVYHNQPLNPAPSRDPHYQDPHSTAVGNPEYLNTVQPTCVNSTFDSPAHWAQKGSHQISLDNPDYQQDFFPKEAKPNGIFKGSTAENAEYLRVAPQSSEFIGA
T1 sequence (Q12809 whole entry): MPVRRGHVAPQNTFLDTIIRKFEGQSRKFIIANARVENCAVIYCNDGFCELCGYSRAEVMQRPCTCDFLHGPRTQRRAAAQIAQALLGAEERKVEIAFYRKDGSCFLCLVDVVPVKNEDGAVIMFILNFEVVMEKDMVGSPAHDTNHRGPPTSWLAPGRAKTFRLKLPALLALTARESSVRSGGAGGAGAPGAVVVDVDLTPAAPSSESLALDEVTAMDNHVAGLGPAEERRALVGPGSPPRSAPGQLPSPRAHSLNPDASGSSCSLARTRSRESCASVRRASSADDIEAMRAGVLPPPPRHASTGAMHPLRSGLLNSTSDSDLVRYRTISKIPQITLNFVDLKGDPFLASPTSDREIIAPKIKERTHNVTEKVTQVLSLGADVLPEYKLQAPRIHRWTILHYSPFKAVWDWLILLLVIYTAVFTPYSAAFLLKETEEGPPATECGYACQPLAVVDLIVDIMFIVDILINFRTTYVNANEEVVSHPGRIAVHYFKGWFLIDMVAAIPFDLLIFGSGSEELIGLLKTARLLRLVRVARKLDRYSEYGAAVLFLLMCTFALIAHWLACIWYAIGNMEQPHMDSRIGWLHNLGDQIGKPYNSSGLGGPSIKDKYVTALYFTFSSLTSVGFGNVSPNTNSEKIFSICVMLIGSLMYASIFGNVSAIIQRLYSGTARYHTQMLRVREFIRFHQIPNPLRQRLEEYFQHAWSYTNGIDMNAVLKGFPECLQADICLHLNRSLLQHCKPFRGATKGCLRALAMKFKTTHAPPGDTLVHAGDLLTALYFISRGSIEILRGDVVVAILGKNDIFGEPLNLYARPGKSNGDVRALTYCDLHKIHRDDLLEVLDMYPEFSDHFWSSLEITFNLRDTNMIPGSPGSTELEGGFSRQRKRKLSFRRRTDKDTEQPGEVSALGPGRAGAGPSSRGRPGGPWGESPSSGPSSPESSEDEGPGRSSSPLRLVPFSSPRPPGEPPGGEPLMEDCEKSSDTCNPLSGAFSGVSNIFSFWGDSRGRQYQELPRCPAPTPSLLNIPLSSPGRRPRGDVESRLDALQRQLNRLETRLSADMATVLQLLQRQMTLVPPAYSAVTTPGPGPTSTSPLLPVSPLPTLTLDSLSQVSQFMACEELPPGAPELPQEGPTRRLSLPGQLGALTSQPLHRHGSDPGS

Instrinsic clearance of liver microsomal protein, CLint [1]: 38.8 μL/min/mg proteins
GI50 [2]: 2.1 nM
SMILES: COc1cc(N2CCC(N3CCN(C)CC3)CC2)c(-c2cnn(C)c2)cc1Nc1ncc(Cl)c(Nc2ccc3nccnc3c2P(C)(C)=O)n1 [Compound 1, (6-((5-Chloro-2-((2-methoxy-5-(1-methyl-1hydro-pyrazol-4-yl)-4-(4-(4-methylpiperazine-1-yl)piperidin-1-yl)phenyl)amino)pyrimidin-4-yl)amino)quinoxalin-5-yl)dimethylphosphine oxide]
IC50 [3]: > 30000 nM
